Laboratory results: publication PMC11969009 (Nature Communications, 2025)

System: SARS-CoV-2 P2 strain
Parameters: species or system C57BL/6 (WT) mice
Settings: mouse, in vivo

CC(C)c1nc(CN(C)C(=O)N[C@H](C(=O)N[C@@H](Cc2ccccc2)C[C@H](O)[C@H](Cc2ccccc2)NC(=O)OCc2cncs2)C(C)C)cs1 [ritonavir, reference compound]
antiviral activity (lung viral burden), mild model: no antiviral activity
